Measured values as given in US9113629B2, “4-amino-6-(4-substituted-phenyl)-picolinates and 6-amino-2-(4-substituted-phenyl)-pyrimidine-4-carboxylates and their use as herbicides” (DOW AGROSCIENCES LLC, priority 2013, dated 2015).

Test system: not listed separately
Assay: Post-emergent Test III, herbicidal activity in wheat and barley
Format: in vivo, Lolium multiflorum, Lolium rigidum
Settings: Lolium multiflorum, post-emergence, 504 h; Table 9; 35 g ai/ha; post-emergent; 21 d; read-out: Visual Growth Reduction (%) 21 Days After Application LOLSS
In short: (§1)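 Plants at the second to third true-leaf stage, grown in a greenhouse at about 18/17 °C with a 14 h photoperiod, were sprayed post-emergence at 187 L/ha with the high rate and ½× to 1/16× serial dilutions in an acetone/DMSO/crop-oil/surfactant carrier. Injury was rated visually at 21 d on a 0–100% scale, and GR20–GR90 were derived by probit analysis.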

SMILES	pest or weed control at 35 g/ha
COC(=O)c1nc(-c2ccc(I)cc2F)cc(N)c1Cl [Compound 159]	45 to 59%
Cc1c(-c2ccc(C(F)(F)F)c(F)c2)nc(C(=O)O)c(Cl)c1N [Compound 161, 4-amino-3-chloro-6-(3-fluoro-4-(trifluoromethyl)phenyl)-5-methylpicolinic acid]	0 to 29%
Nc1c(Cl)c(C(=O)O)nc(-c2ccc(I)cc2)c1Cl [Compound 173]	30 to 44%

Same assay, conditions: Lolium multiflorum, post-emergence, 504 h; Table 9; 70 g ai/ha; post-emergent; 21 d; read-out: Visual Growth Reduction (%) 21 Days After Application LOLSS

SMILES	pest or weed control at 70 g/ha
COC(=O)c1nc(-c2ccc(I)cc2F)cc(N)c1Cl [Compound 159]	60 to 74%
Cc1c(-c2ccc(C(F)(F)F)c(F)c2)nc(C(=O)O)c(Cl)c1N [Compound 161, 4-amino-3-chloro-6-(3-fluoro-4-(trifluoromethyl)phenyl)-5-methylpicolinic acid]	0 to 29%
Nc1c(Cl)c(C(=O)O)nc(-c2ccc(I)cc2)c1Cl [Compound 173]	45 to 59%

Test system: APESV: bentgrass (Apera spica-venti)
Assay: as above
Format: in vivo
Settings: Apera spica-venti, post-emergence, 504 h; Table 9; 35 g ai/ha; post-emergent; 21 d; read-out: Visual Growth Reduction (%) 21 Days After Application APESV
In short: as §1

SMILES	pest or weed control at 35 g/ha
COC(=O)c1nc(-c2ccc(I)cc2F)cc(N)c1Cl [Compound 159]	85 to 94%
Cc1c(-c2ccc(C(F)(F)F)c(F)c2)nc(C(=O)O)c(Cl)c1N [Compound 161, 4-amino-3-chloro-6-(3-fluoro-4-(trifluoromethyl)phenyl)-5-methylpicolinic acid]	60 to 74%
Nc1c(Cl)c(C(=O)O)nc(-c2ccc(I)cc2)c1Cl [Compound 173]	60 to 74%

Same assay, conditions: Apera spica-venti, post-emergence, 504 h; Table 9; 70 g ai/ha; post-emergent; 21 d; read-out: Visual Growth Reduction (%) 21 Days After Application APESV

SMILES	pest or weed control at 70 g/ha
COC(=O)c1nc(-c2ccc(I)cc2F)cc(N)c1Cl [Compound 159]	95 to 100%
Cc1c(-c2ccc(C(F)(F)F)c(F)c2)nc(C(=O)O)c(Cl)c1N [Compound 161, 4-amino-3-chloro-6-(3-fluoro-4-(trifluoromethyl)phenyl)-5-methylpicolinic acid]	75 to 84%
Nc1c(Cl)c(C(=O)O)nc(-c2ccc(I)cc2)c1Cl [Compound 173]	75 to 84%

Same assay, conditions: Table 9; dose for 50 percent growth reduction, probit analysis; 21 d

SMILES	GR50 APESV
COC(=O)c1nc(-c2ccc(I)cc2F)cc(N)c1Cl [Compound 159]	11 g ai/ha
Cc1c(-c2ccc(C(F)(F)F)c(F)c2)nc(C(=O)O)c(Cl)c1N [Compound 161, 4-amino-3-chloro-6-(3-fluoro-4-(trifluoromethyl)phenyl)-5-methylpicolinic acid]	30 g ai/ha
Nc1c(Cl)c(C(=O)O)nc(-c2ccc(I)cc2)c1Cl [Compound 173]	27 g ai/ha

Same assay, conditions: Table 9; dose for 80 percent growth reduction, probit analysis; 21 d

SMILES	GR80 APESV
COC(=O)c1nc(-c2ccc(I)cc2F)cc(N)c1Cl [Compound 159]	25 g ai/ha
Cc1c(-c2ccc(C(F)(F)F)c(F)c2)nc(C(=O)O)c(Cl)c1N [Compound 161, 4-amino-3-chloro-6-(3-fluoro-4-(trifluoromethyl)phenyl)-5-methylpicolinic acid]	57 g ai/ha
Nc1c(Cl)c(C(=O)O)nc(-c2ccc(I)cc2)c1Cl [Compound 173]	59 g ai/ha

Test system: HORSS: barley, including spring and winter (Hordeum vulgare)
Assay: as above
Format: in vivo
Settings: Hordeum vulgare, post-emergence, 504 h; Table 9; 35 g ai/ha; post-emergent; 21 d; read-out: Visual Growth Reduction (%) 21 Days After Application HORSS
In short: as §1

SMILES	pest or weed control at 35 g/ha
COC(=O)c1nc(-c2ccc(I)cc2F)cc(N)c1Cl [Compound 159]	85 to 94%
Cc1c(-c2ccc(C(F)(F)F)c(F)c2)nc(C(=O)O)c(Cl)c1N [Compound 161, 4-amino-3-chloro-6-(3-fluoro-4-(trifluoromethyl)phenyl)-5-methylpicolinic acid]	85 to 94%
Nc1c(Cl)c(C(=O)O)nc(-c2ccc(I)cc2)c1Cl [Compound 173]	85 to 94%

Same assay, conditions: Hordeum vulgare, post-emergence, 504 h; Table 9; 70 g ai/ha; post-emergent; 21 d; read-out: Visual Growth Reduction (%) 21 Days After Application HORSS

SMILES	pest or weed control at 70 g/ha
COC(=O)c1nc(-c2ccc(I)cc2F)cc(N)c1Cl [Compound 159]	95 to 100%
Cc1c(-c2ccc(C(F)(F)F)c(F)c2)nc(C(=O)O)c(Cl)c1N [Compound 161, 4-amino-3-chloro-6-(3-fluoro-4-(trifluoromethyl)phenyl)-5-methylpicolinic acid]	85 to 94%
Nc1c(Cl)c(C(=O)O)nc(-c2ccc(I)cc2)c1Cl [Compound 173]	95 to 100%

Same assay, conditions: Table 9; dose for 20 percent growth reduction, probit analysis; 21 d

SMILES	GR20 HORSS
COC(=O)c1nc(-c2ccc(I)cc2F)cc(N)c1Cl [Compound 159]	1 g ai/ha
Cc1c(-c2ccc(C(F)(F)F)c(F)c2)nc(C(=O)O)c(Cl)c1N [Compound 161, 4-amino-3-chloro-6-(3-fluoro-4-(trifluoromethyl)phenyl)-5-methylpicolinic acid]	1 g ai/ha
Nc1c(Cl)c(C(=O)O)nc(-c2ccc(I)cc2)c1Cl [Compound 173]	1 g ai/ha

Test system: KCHSC: kochia (Kochia scoparia)
Assay: as above
Format: in vivo
Settings: Bassia scoparia, post-emergence, 504 h; Table 9; 35 g ai/ha; post-emergent; 21 d; read-out: Visual Growth Reduction (%) 21 Days After Application KCHSC
In short: as §1

SMILES	pest or weed control at 35 g/ha
COC(=O)c1nc(-c2ccc(I)cc2F)cc(N)c1Cl [Compound 159]	85 to 94%
Cc1c(-c2ccc(C(F)(F)F)c(F)c2)nc(C(=O)O)c(Cl)c1N [Compound 161, 4-amino-3-chloro-6-(3-fluoro-4-(trifluoromethyl)phenyl)-5-methylpicolinic acid]	0 to 29%
Nc1c(Cl)c(C(=O)O)nc(-c2ccc(I)cc2)c1Cl [Compound 173]	30 to 44%

Same assay, conditions: Bassia scoparia, post-emergence, 504 h; Table 9; 70 g ai/ha; post-emergent; 21 d; read-out: Visual Growth Reduction (%) 21 Days After Application KCHSC

SMILES	pest or weed control at 70 g/ha
COC(=O)c1nc(-c2ccc(I)cc2F)cc(N)c1Cl [Compound 159]	95 to 100%
Cc1c(-c2ccc(C(F)(F)F)c(F)c2)nc(C(=O)O)c(Cl)c1N [Compound 161, 4-amino-3-chloro-6-(3-fluoro-4-(trifluoromethyl)phenyl)-5-methylpicolinic acid]	0 to 29%
Nc1c(Cl)c(C(=O)O)nc(-c2ccc(I)cc2)c1Cl [Compound 173]	45 to 59%

Same assay, conditions: Table 9; dose for 50 percent growth reduction, probit analysis; 21 d

SMILES	GR50 KCHSC
COC(=O)c1nc(-c2ccc(I)cc2F)cc(N)c1Cl [Compound 159]	4 g ai/ha
Cc1c(-c2ccc(C(F)(F)F)c(F)c2)nc(C(=O)O)c(Cl)c1N [Compound 161, 4-amino-3-chloro-6-(3-fluoro-4-(trifluoromethyl)phenyl)-5-methylpicolinic acid]	>140 g ai/ha
Nc1c(Cl)c(C(=O)O)nc(-c2ccc(I)cc2)c1Cl [Compound 173]	60 g ai/ha

Same assay, conditions: Table 9; dose for 80 percent growth reduction, probit analysis; 21 d

SMILES	GR80 KCHSC
COC(=O)c1nc(-c2ccc(I)cc2F)cc(N)c1Cl [Compound 159]	19 g ai/ha
Cc1c(-c2ccc(C(F)(F)F)c(F)c2)nc(C(=O)O)c(Cl)c1N [Compound 161, 4-amino-3-chloro-6-(3-fluoro-4-(trifluoromethyl)phenyl)-5-methylpicolinic acid]	>140 g ai/ha
Nc1c(Cl)c(C(=O)O)nc(-c2ccc(I)cc2)c1Cl [Compound 173]	131 g ai/ha

Test system: LOLSS: ryegrass including, Italian ryegrass (Lolium multiflorum), rigid ryegrass (Lolium rigidum), annual ryegrass (Lolium multiflorum subsp. Gaudini)
Assay: as above
Format: in vivo
Settings: Table 9; dose for 50 percent growth reduction, probit analysis; 21 d
In short: as §1

SMILES	GR50 LOLSS
COC(=O)c1nc(-c2ccc(I)cc2F)cc(N)c1Cl [Compound 159]	36 g ai/ha
Cc1c(-c2ccc(C(F)(F)F)c(F)c2)nc(C(=O)O)c(Cl)c1N [Compound 161, 4-amino-3-chloro-6-(3-fluoro-4-(trifluoromethyl)phenyl)-5-methylpicolinic acid]	38 g ai/ha
Nc1c(Cl)c(C(=O)O)nc(-c2ccc(I)cc2)c1Cl [Compound 173]	119 g ai/ha

Same assay, conditions: Table 9; dose for 80 percent growth reduction, probit analysis; 21 d

SMILES	GR80 LOLSS
COC(=O)c1nc(-c2ccc(I)cc2F)cc(N)c1Cl [Compound 159]	89 g ai/ha
Cc1c(-c2ccc(C(F)(F)F)c(F)c2)nc(C(=O)O)c(Cl)c1N [Compound 161, 4-amino-3-chloro-6-(3-fluoro-4-(trifluoromethyl)phenyl)-5-methylpicolinic acid]	82 g ai/ha
Nc1c(Cl)c(C(=O)O)nc(-c2ccc(I)cc2)c1Cl [Compound 173]	>140 g ai/ha

Test system: SETVI: green foxtail (Setaria viridis)
Assay: as above
Format: in vivo
Settings: Setaria viridis, post-emergence, 504 h; Table 9; 35 g ai/ha; post-emergent; 21 d; read-out: Visual Growth Reduction (%) 21 Days After Application SETVI
In short: as §1

SMILES	pest or weed control at 35 g/ha
COC(=O)c1nc(-c2ccc(I)cc2F)cc(N)c1Cl [Compound 159]	45 to 59%
Cc1c(-c2ccc(C(F)(F)F)c(F)c2)nc(C(=O)O)c(Cl)c1N [Compound 161, 4-amino-3-chloro-6-(3-fluoro-4-(trifluoromethyl)phenyl)-5-methylpicolinic acid]	30 to 44%
Nc1c(Cl)c(C(=O)O)nc(-c2ccc(I)cc2)c1Cl [Compound 173]	30 to 44%

Same assay, conditions: Setaria viridis, post-emergence, 504 h; Table 9; 70 g ai/ha; post-emergent; 21 d; read-out: Visual Growth Reduction (%) 21 Days After Application SETVI

SMILES	pest or weed control at 70 g/ha
COC(=O)c1nc(-c2ccc(I)cc2F)cc(N)c1Cl [Compound 159]	60 to 74%
Cc1c(-c2ccc(C(F)(F)F)c(F)c2)nc(C(=O)O)c(Cl)c1N [Compound 161, 4-amino-3-chloro-6-(3-fluoro-4-(trifluoromethyl)phenyl)-5-methylpicolinic acid]	60 to 74%
Nc1c(Cl)c(C(=O)O)nc(-c2ccc(I)cc2)c1Cl [Compound 173]	45 to 59%

Same assay, conditions: Table 9; dose for 50 percent growth reduction, probit analysis; 21 d

SMILES	GR50 SETVI
COC(=O)c1nc(-c2ccc(I)cc2F)cc(N)c1Cl [Compound 159]	43 g ai/ha
Cc1c(-c2ccc(C(F)(F)F)c(F)c2)nc(C(=O)O)c(Cl)c1N [Compound 161, 4-amino-3-chloro-6-(3-fluoro-4-(trifluoromethyl)phenyl)-5-methylpicolinic acid]	53 g ai/ha
Nc1c(Cl)c(C(=O)O)nc(-c2ccc(I)cc2)c1Cl [Compound 173]	54 g ai/ha

Same assay, conditions: Table 9; dose for 80 percent growth reduction, probit analysis; 21 d

SMILES	GR80 SETVI
COC(=O)c1nc(-c2ccc(I)cc2F)cc(N)c1Cl [Compound 159]	113 g ai/ha
Cc1c(-c2ccc(C(F)(F)F)c(F)c2)nc(C(=O)O)c(Cl)c1N [Compound 161, 4-amino-3-chloro-6-(3-fluoro-4-(trifluoromethyl)phenyl)-5-methylpicolinic acid]	128 g ai/ha
Nc1c(Cl)c(C(=O)O)nc(-c2ccc(I)cc2)c1Cl [Compound 173]	104 g ai/ha

Test system: TRZSS: wheat, including spring and winter (Triticum aestivum)
Assay: as above
Format: in vivo
Settings: Table 9; dose for 20 percent growth reduction, probit analysis; 21 d
In short: as §1

SMILES	GR20 TRZSS
COC(=O)c1nc(-c2ccc(I)cc2F)cc(N)c1Cl [Compound 159]	1 g ai/ha
Cc1c(-c2ccc(C(F)(F)F)c(F)c2)nc(C(=O)O)c(Cl)c1N [Compound 161, 4-amino-3-chloro-6-(3-fluoro-4-(trifluoromethyl)phenyl)-5-methylpicolinic acid]	1 g ai/ha
Nc1c(Cl)c(C(=O)O)nc(-c2ccc(I)cc2)c1Cl [Compound 173]	1 g ai/ha

Same assay, conditions: Triticum aestivum, post-emergence, 504 h; Table 9; 35 g ai/ha; post-emergent; 21 d; read-out: Visual Growth Reduction (%) 21 Days After Application TRZSS

SMILES	pest or weed control at 35 g/ha
COC(=O)c1nc(-c2ccc(I)cc2F)cc(N)c1Cl [Compound 159]	85 to 94%
Cc1c(-c2ccc(C(F)(F)F)c(F)c2)nc(C(=O)O)c(Cl)c1N [Compound 161, 4-amino-3-chloro-6-(3-fluoro-4-(trifluoromethyl)phenyl)-5-methylpicolinic acid]	75 to 84%
Nc1c(Cl)c(C(=O)O)nc(-c2ccc(I)cc2)c1Cl [Compound 173]	75 to 84%

Same assay, conditions: Triticum aestivum, post-emergence, 504 h; Table 9; 70 g ai/ha; post-emergent; 21 d; read-out: Visual Growth Reduction (%) 21 Days After Application TRZSS

SMILES	pest or weed control at 70 g/ha
COC(=O)c1nc(-c2ccc(I)cc2F)cc(N)c1Cl [Compound 159]	95 to 100%
Cc1c(-c2ccc(C(F)(F)F)c(F)c2)nc(C(=O)O)c(Cl)c1N [Compound 161, 4-amino-3-chloro-6-(3-fluoro-4-(trifluoromethyl)phenyl)-5-methylpicolinic acid]	75 to 84%
Nc1c(Cl)c(C(=O)O)nc(-c2ccc(I)cc2)c1Cl [Compound 173]	85 to 94%
